Laboratory results taken from PubChem BioAssay AID651886 (Southern Research Specialized Biocontainment Screening …, 2012).
Activity calls are given as the source filed them. No rule for the calls is given here.

System: VEEV TC-83 infected cells, virus titer reduction
Assay: VEEV TC 83 virus titer reduction, infected cells, secondary screen, 5 µm (AID 651886)
Settings: at 5 µM; active compounds read low

Structure (SMILES)	log virus titer change
CCN1CCN(Cc2nc3ccc([N+](=O)[O-])cc3c(=O)n2-c2ccc(F)cc2)CC1	-5.88
O=c1c2cc([N+](=O)[O-])ccc2nc(CN2CCNCC2)n1-c1ccccc1F	< -7.76
CCN1CCN(Cc2nc3ccc([N+](=O)[O-])cc3c(=O)n2-c2ccccc2)CC1	< -7.54
CN1CCN(C)C(=Nc2ccc([N+](=O)[O-])cc2C(=O)Nc2ccccc2F)C1	-3.8
COc1ccc(NC(=O)c2cc([N+](=O)[O-])ccc2N=C2CN(C)CCN2C)cc1	< -7.2
CCN1CCN(Cc2nc3ccc([N+](=O)[O-])cc3c(=O)n2-c2cccc(F)c2)CC1	-7.11
CCN1CCN(Cc2nc3ccc([N+](=O)[O-])cc3c(=O)n2-c2ccccc2F)CC1	-2.06
CN1CCN(C)C(=Nc2ccc(C#N)cc2C(=O)Nc2cccc(F)c2)C1	-1.43
CN1CCN(Cc2nc3ccc([N+](=O)[O-])cc3c(=O)n2-c2ccccc2F)CC1	< -7.76
CCN1CCN(Cc2nc3ccc(I)cc3c(=O)n2-c2ccccc2)CC1	-0.33 (inactive)
CN1CCN(C)C(=Nc2ccc([N+](=O)[O-])cc2C(=O)Nc2ccccc2)C1	< -7.2
O=c1c2cc([N+](=O)[O-])ccc2nc(CN2CCCCC2)n1-c1ccccc1F	-0.366 (inactive)
CCN1CCN(Cc2nc3ccc(C#N)cc3c(=O)n2-c2ccccc2)CC1	-1.65
O=c1c2cc([N+](=O)[O-])ccc2nc(CN2CCNCC2)n1-c1ccccc1	< -7.76
CCN1CCN(C)CC1=Nc1ccc([N+](=O)[O-])cc1C(=O)Nc1ccccc1	< -7.2
CN1CCN(C)C(=Nc2ccc(C#N)cc2C(=O)Nc2ccccc2)C1	-5.82
